Experimental data taken from patent US8741843B2, “Compositions and methods for inducing angiogenesis” (priority 2006, dated 2014).
Entries after “also recorded” stand apart in the source; their conditions may differ. Ends that are not written are not given here.

Assays:
[1] = test system: endothelial cells (HUVEC); assay: Migration of endothelial cells under hypoxia (Chemicon QCM 96-well Migration Assay); type: cell-based, human; conditions: 5 hours hypoxia, 10 ng/ml
Protocol: FIG. 6 is a graph depicting migration of endothelial cells under hypoxia conditions. Endothelial cells (25,000) were incubated in endothelial cells growth medium free supplements in the migration chamber. ADOPep1 (SEQ ID NO:2), 2 (SEQ ID NO:3) and 3 (SEQ ID NO:4) were added to the feeder tray of the migratory kit at 1, 10 and 100 ng/ml for 5 hours hypoxia. Results were determined by a fluorescence ELISA reader and expressed as increase in percentage migration in Relative fluorescence Units.
FIGS. 26a-b are graphs depicting induction of endothelial cell migration under hypoxia by the ADOPEP motifs. Endothelial cells were incubated for 5 hours under hypoxia conditions in the presence of increasing concentrations of ADOPep1 (red line), peptide motif A (dark blue line), peptide motif B (green line) or peptide motif C (light blue line) and the migration of endothelial cells was detected. FIG. 26a—experiment 1; FIG. 26b—experiment 2.
Endothelial cell migration was evaluated by the Chemicon QCM 96-well Migration Assay (Chemicon International, Calif., USA) according to manufacturer's instructions. This kit utilizes a membrane with an 8 μm pore size. Migratory cells on the bottom of the insert membrane are dissociated from the membrane when incubated with cell detachment buffer provided by the kit. […] For the migration assay, HUVEC from passage 3 were incubated in endothelial cell (EC) growth medium free of supplements. After trypsinization, 25,000 EC were incubated in the migration chamber. ADOPeps were added at concentrations of 1, 10 and 100 ng/ml in the feeder tray for chemoattractant migration assay. Time of incubation was 5 hours for endothelial cells under hypoxic conditions. Results were determined in a Fluorescent ELISA reader at 480/520 nm.

endothelial cells [2] = assay: Hypoxia-induced apoptosis of endothelial cells (Annexin V FITC/PI FACS); type: cell-based, human; conditions: 24 hours hypoxia; for effect on hypoxia-induced apoptosis of endothelial cells: peptides 10 ng/ml
Protocol: FIG. 17 is a histogram depicting the effect of ADOPep1 on hypoxia-induced apoptosis of endothelial cells. Endothelial cells were exposed for 24 hours hypoxia in the presence of endothelial cell growth medium supplemented with 5% fetal calf serum (FCS), followed by incubation under hypoxia conditions with ADOPep1 (10 ng/ml) or anti-GRP78 antibody (100 ng/ml). Cells (100,000/tube) were incubated with Annexin-V FITC/PI for endothelial cell apoptosis determination. […] Similarly, anti-GRP78 antibody induced a reduction in apoptosis up to 32%.
FIGS. 24a-d are FACS analyses depicting hypoxia induced apoptosis. Endothelial cells were incubated for 24 hours under hypoxia conditions in the absence (FIG. 24a) or presence of 10 ng/ml of ADOPepe1 (FIG. 24b), peptide of Motif A (FIG. 24c) or peptide of motif C (FIG. 24d) and the level of apoptosis was determined using FACS analysis and the PI (shown on the Y axis)/Annexin V (shown on the X axis) markers.
FIG. 25 is a bar graph depicting the inhibition of hypoxia induced apoptosis by ADOPep 1, Motif A and Motif B. Endothelial cells were incubated for 24 hours under hypoxia conditions in the absence or presence of 10 ng/ml of ADOPepe1, Motif A, Motif B or motif C and the level of apoptosis was determined using FACS analysis and quantified as the percent of Annexin V and PI positive cells. The results represent average±standard deviation of 4 independent experiments.
FIGS. 33a-f are representative FACS analyses depicting a specific inhibition of hypoxia-induced apoptosis of endothelial cells by ADOPep1. Endothelial cells in Petri dishes were incubated for 24 hours with 5% FCS in supplement-free endothelial cell growth medium under normoxia (FIGS. 33a and d), exposed to 24 hours hypoxia (Figures c and f) or incubated under normoxia with 100 micromolar per 100,000 cells CoCl2 (FIGS. 33b and e), in the absence (FIGS. 33a-c) or presence (FIGS. 33d-f) of 10 ng/ml Adopep1 peptide (for 24 hours). Cells were trypsinized and immediately re-suspended in PBS with 5% FCS and 0.1% Na-azide. Samples containing 100,000 cells were tested for apoptosis using the Annexin-FITC (X axis) and propidium iodide (Y axis) kit (Bender Medsystems, Vienna, Austria), according to manufacturer's instructions. Results were analyzed by FACScan (Beckton Dickinson).
EC were incubated for 24 hours with 5% FCS in EC growth media in Petri dishes plates followed by 24 hours incubation under hypoxia conditions with ADOPep1 (10 ng/ml), anti GRP78 antibody (Santa Cruz Biotechnology, Calif., USA) (1 microgram/ml) or recombinant VEGF (10 ng/ml). The Annexin V FITC/PI detects the phosphatidylserin on the apoptotic cells using flow cytometry. Human Annexin V-FITC kit (Bender Medsystems, Vienna, Austria) was used for the measurement of EC apoptosis percentage following manufacturer's instructions. Samples were analyzed using a fluorescence activated cell sorter (FACScan Beckton Dickinson, Calif., USA).

endothelial cells [3] = assay: Inhibition of binding of biotinylated ADOPep1 to endothelial cells by motif peptides; parameters: species or system human; conditions: normoxia, peptides 0.01, 0.1 or 1 ng/ml, ADOPep1^Biot 2 μg/ml
Protocol: FIG. 23 is a graph depicting the inhibition of binding of ADOPep1^Biot (2 μg/ml) to endothelial cells by specific peptides corresponding to conserved motifs from the ADOPeps. Endothelial cells were incubated for 2 hours under normoxia conditions in the presence of increasing concentrations (0.01, 0.1 or 1 ng/ml) of peptides having the amino acid sequences corresponding to Motif A (HWRRP; SEQ ID NO:7), Motif B (HWRRA; SEQ ID NO:8), Motif C (AHLLP; SEQ ID NO:6) or non-biotinylated ADOPep1 (SEQ ID NO:2) and then were incubated for 1 hour with biotinylated ADOPep1 (2 μg/ml) and the binding of biotinylated ADOPep1 to endothelial cells was determined using HRP-streptavidin.

[4] = molecular target: T1, GRP78 on endothelial cells (Homo sapiens, UniProt P11021); assay: FACS competition of peptides with GRP78 polyclonal antibody on endothelial cells under hypoxia; type: binding; conditions: hypoxic conditions; listed as motif C
T1 construct: endogenous in cells; host or cells: HUVEC / endothelial cells from umbilical cords, under normoxia or hypoxia
Protocol: Endothelial cells were cultured for 24 hours under hypoxic conditions in endothelial cell growth medium. Cells were removed by trypsin and incubated for 1 hour on ice with increasing concentrations of AdoPep1, Motif A and Motif C peptides. GRP78 polyclonal antibody (2 μg/100,000) was added to the cells for 2 hours on ice. Anti-goat FITC (Jackson ImmunoResearch) was added for 30 minutes on ice. IgG1-FITC was used as the isotype control. The samples were analyzed with a FACScan (Beckton Dickinson). […] FIG. 28d depicts the average percent binding of GRP78 to endothelial cells as a function of peptide amount as determined by 2 independent experiments.

[5] = test system: endothelial cells (HUVEC); assay: Binding of biotinylated ADOPep to endothelial cells by FACS; parameters: species or system human; conditions: 5 micrograms per 100,000 cells
Protocol: FIG. 3 is a FACS analysis depicting the binding (in percentages) of biotinylated ADOPep1 (ADOPep1^Biot), an ADAM15 derived peptide (SEQ ID NO:2), to endothelial cells (EC) under normoxia. Biotinylated ADOPep1 at 0.05, 0.5 and 5 microgram/ml (μg/ml) were added to endothelial cells.
FIG. 4 is a FACS analysis depicting the binding (in total counts) of Biotinylated ADOPep1 to endothelial cells under normoxia and hypoxia conditions. […] X axis—Intensity of binding.
Human umbilical endothelial cells (HUVEC) were harvested by trypsin and 100,000 cells per sample were suspended in PBS+5% FCS+0.1% Na azide. Endothelial cells were either exposed for 5 hours to hypoxia or remained under normoxia conditions. Cells were stained for 2 hours on ice in dark with 0.05, 0.5, 5 μg/100,000 cells biotinylated ADOPeps. The cells were then washed twice with PBS, following which the cells were stained for 30 minutes with FITC-labeled Streptavidin (Jackson ImmunoResearch Laboratories, PA, USA). After washing, samples were analyzed using a fluorescence activated cell sorter (FACScan Beckton Dickinson, Calif., USA).

GRP78 = GRP78 (Homo sapiens, UniProt P11021); assay: Immune precipitation of endothelial cell lysate with biotinylated ADOPep1, PAGE, Western blot, mass spectrometry; type: binding; parameters: immune precipitation of endothelial cells lysate with biotinylated ADOPep1 under normoxia and hypoxia conditions; endogenous in cells; host or cells: HUVEC (lysate); conditions: normoxia and hypoxia
Protocol: HUVEC were seeded in 90 mm Petri dishes plates for 24 hours with complete Endothelial Cell Growth Medium (PromoCell. Heildelberg, Germany). Cells were washed twice with PBS and buffer lysate (50 mM Tris Cl (pH 8, 150 mM Na Cl, 0.02% Na azide, 0.1% SDS, 100 μg/ml PMSF, 1 μg/ml protease inhibitors, 1% NP-40) was added for 20 minutes on ice. After incubation, cells were scraped with a rubber policeman and transferred to a chilled microfuge tube. After centrifugation of lysate at 12,000 g for 2 minutes at 4° C., supernatant was transferred to a fresh microfuge tube and stored at −70° C.
Aliquots samples of lysates (500 μl) were incubated with 10 μg of biotinylated ADOPep1 for one hour at 4° C. by gently mixing. Streptavidin Sepharose beads (Amersham Biosciences, Uppsla, Sweeden) (50 μl) were added to the sample for a second incubation one hour at 4° C. by gently mixing. After then, sample was centrifuge for 20 seconds at 12,000 g and the pellet was saved and further washed 3 times. Finally the pellet was suspended in 100 μl of sample buffer for Western blot analysis. For ELISA, protein was eluted by 5 minutes incubation of the sample at room temperature in 1 ml of Tris-Glycin 0.2M (pH 2.2), followed by titration with 1M Tris (pH 9.1). […]

T1 sequence (P11021 19-654): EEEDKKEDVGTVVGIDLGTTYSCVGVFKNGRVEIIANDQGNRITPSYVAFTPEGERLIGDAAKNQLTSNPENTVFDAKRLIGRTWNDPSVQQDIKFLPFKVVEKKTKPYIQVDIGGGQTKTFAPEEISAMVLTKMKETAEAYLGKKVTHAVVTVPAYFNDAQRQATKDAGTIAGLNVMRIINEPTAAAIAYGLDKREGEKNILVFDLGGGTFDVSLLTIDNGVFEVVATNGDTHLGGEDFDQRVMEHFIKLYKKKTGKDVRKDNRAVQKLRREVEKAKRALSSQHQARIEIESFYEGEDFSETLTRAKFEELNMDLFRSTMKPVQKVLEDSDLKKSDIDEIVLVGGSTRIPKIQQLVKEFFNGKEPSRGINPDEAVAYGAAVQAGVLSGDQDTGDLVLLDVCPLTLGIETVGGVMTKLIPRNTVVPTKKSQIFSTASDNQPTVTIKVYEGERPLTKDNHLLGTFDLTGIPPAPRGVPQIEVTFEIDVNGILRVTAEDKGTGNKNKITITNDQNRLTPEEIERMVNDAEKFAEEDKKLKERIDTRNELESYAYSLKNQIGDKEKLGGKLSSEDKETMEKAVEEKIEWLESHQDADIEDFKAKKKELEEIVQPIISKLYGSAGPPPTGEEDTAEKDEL
Chain of GRP78 (P11021 19-654): as above

Row | Substance | migration of endothelial cells [1] | effect on hypoxia-induced apoptosis of endothelial cells (endothelial cells [2]) | effect on hypoxia-induced apoptosis of endothelial cells (endothelial cells [2]; listed as motif C) | percent apoptosis (PI/Annexin V) (endothelial cells [2]; FIGS. 24a-d, 10 ng/ml, hypoxia alone 79.3%) | inhibition of the binding of ADOPep1^Biot to endothelial cells (endothelial cells [3]) | inhibition of anti GRP78 binding to endothelial cells (in words) [4] | binding to endothelial cells under hypoxia versus normoxia [5] | protein (receptor) bound by the peptide in endothelial cell lysate (GRP78)
1 | AHLLP [Motif C, 5 amino acid motif peptide without HWRR] | no significant effect on endothelial cell migration | no effect on apoptosis | no effect on hypoxia induced apoptosis | 81.1% | moderate inhibition of binding | did not inhibit anti GRP78 binding |  | 
2 | HWRRA [Motif B, 5 amino acid motif peptide] | induced endothelial cell migration | capable of inhibiting the hypoxia induced apoptosis; also recorded: significant inhibition of hypoxia induced apoptosis |  |  | significant inhibition |  |  | 
3 | biotinylated ADOPep1: biotinylated ADOPep1 (SEQ ID NO:2) (HWRRAHLLPRLP; also: biotinylated) |  |  |  |  |  |  | increased under hypoxia | GRP78 protein
